This note sets out measurements from a melting point compilation (Tetko et al.; mined from patent text by program, amines drawn as free bases though some values may be those of a salt).

Usually melting point stands for the temperature of the solid-liquid transition. For `CCOC(=O)Cc1ccc(-c2cn3cccnc3n2)cc1`, the melting point is 155 to 158 °C. The same measure for `CCCCOc1nsnc1OC[C@@H]1CCCN1`: 99 to 100 °C; for `O=c1[nH]c2cccc(O)c2n1CCN1CCN(c2cccc(C(F)(F)F)c2)CC1`: 246 °C; for `O=C(O)c1cc(-c2ccccc2F)ns1`: 191 to 192 °C.

As for `O=C(CCCCCCCCCCCCC(=O)Oc1cc(O)cc(O)c1)Oc1cc(O)cc(O)c1`, the melting point lay within 140 to 145 °C. `C#CCCOc1ccc(C=O)cc1OC` returned a melting point of 101 to 102 °C.

Regarding `Oc1ccccc1Nc1cc[nH]n1`, the melting point was 163 to 164 °C.

`Nc1cc(Cl)c(Sc2cccc3cnccc23)cc1N` showed a melting point of 200 to 203 °C.

For the compound `Cc1c(-c2ccccc2)oc2c(CN(C)CCCl)cccc2c1=O`, the melting point lay in the range of 118 to 120 °C. As to `CC(=O)Oc1c(C(=O)c2ccccc2Cl)c(C)nn1C`, the melting point is 78 to 79 °C. The same measure for `COc1ccc(C(=O)Nc2nc(C)c(C(=O)NCc3ccccc3)s2)cc1`: 203 to 204 °C; for `COc1ccc(-c2cc(=O)n(CC(C)C)nc2-c2ccc(OC)c(F)c2)cc1F`: 154 °C.

As for `CCCCCCCCCCCCCCOc1ccc(C(=O)C(Br)c2ccc([N+](=O)[O-])cc2)cc1` (stereo unspecified), the melting point lay within 55 to 56 °C.

`CCCCc1cc(Cn2cnc3c(N)nc4ccccc4c32)no1` had a melting point of 201 to 203 °C. The same measure for `COC(=O)c1ccc(-c2coc(-c3ccc4c(c3)C(C)(C)CCC4(C)C)c2)cc1`: 109 to 111 °C; for `COc1cc(N2CCCCC2)c(Cl)cc1CC(=O)O`: 120 to 122 °C.

In the case of `CCOC(=O)CCCOc1ccc(C(=O)Nc2ccccc2Oc2ccccc2-c2nnn[nH]2)cc1`, the melting point is 162 to 164 °C. The same measure for `O=C1CCC(c2ccc(-n3cnc4ccccc43)cc2)=NN1`: 262 to 264 °C; for `CC(C)NC(=O)c1c(I)cccc1C(=O)Nc1ccc(OCC(F)(F)F)nc1`: 220 to 225 °C. To `FC(F)(F)c1ccccc1CC[C@H]1CN(Cc2ccccc2)CCN1Cc1ccccc1` belongs 77 to 82 °C; to `O=C(O)CC1=CSCSC1`, 97 °C. The compound `COCCOc1ccnc(NCc2ccccc2)c1[N+](=O)[O-]` had a melting point of 81 to 83 °C.

`COc1ccc(-c2cc(C(=O)Nc3ccccc3)c(=O)n(CC3CC3)n2)cc1`: the melting point was 163 °C. To `CS(=O)(=O)c1cccc(C2=C(c3ccccc3)C(=O)N(c3ccc(F)cc3)C2)c1` belongs 207 to 209 °C; to `Cc1ccc(C(=O)Nc2cccc(C(F)(F)F)c2)cc1-c1ccc2scnc2c1`, 200 to 202 °C; to `CCOC(=O)c1c(-c2cccc([N+](=O)[O-])c2)cc(-c2ccccc2)nc1C`, 110 to 112 °C. To `COc1ccc(CN2CCc3c(nc4ccc(OC)cc4c3-c3ccc(OC)cc3)C2=O)cc1` belongs 132 to 134 °C. `Cc1cc(N2C=C3C(c4ccccc4)=C(OCc4ncn(C)n4)NN3C=N2)no1` yielded a melting point of 194 to 196 °C. `CCCCCCCCNC(=O)N=C(NC(=O)NCC)OC` yielded a melting point of 88 to 90 °C. For the compound `O=C1CCC(N2C=Nc3ccccc3C2)C(=O)N1` (stereo unspecified), the melting point is 258 °C. Consider `Cc1cccc(NC(=O)N=C2CCCN2C)c1`, for which the melting point lay within 137 to 142 °C.

For the compound `CC(=O)NC1CCCCc2sccc21` (stereo unspecified), the melting point lay in the range of 179 to 180 °C.

`Cc1cc(C)nc(NC(=O)c2ccn3c2CSC3c2cccnc2)c1` (stereo unspecified) returned a melting point of 171 °C. To `CCCCn1c(=O)c2cc(C(=O)O)cn2c2ccccc21` belongs 212 to 214 °C. `O=C(O)c1nn(-c2c(Cl)cc(C(F)(F)F)cc2Cl)cc1OC(F)F` showed a melting point of 180 to 183 °C. The same measure for `CCOCc1cc2ccccc2oc1=Nc1ccc(Br)cc1`: 73 to 74 °C. As for `COc1ccc(N2CCN(Cc3n[nH]c4c(I)cccc34)CC2)cc1`, the melting point fell in the range of 185 to 186 °C.

`O=[N+]([O-])c1ccc(F)c2ncccc12` gave a melting point of 132 to 133 °C. Consider `O=C(CCCN1CCCCC1)c1ccc2c(c1)C(=O)c1cc(C(=O)CCCN3CCCCC3)ccc1-2`, for which the melting point lay in the range of 168 to 170 °C.

Consider `Clc1ccc(C#Cc2c3ccccc3c(C#Cc3ccc(Cl)cc3)c3ccccc23)cc1`, for which the melting point came to 268 °C. The same measure for `CCOC(=O)Nc1cc(O)c(Cl)cc1F`: 152 to 154 °C. In turn, `CCCc1c(OCCOc2cccc(Sc3ccc(C(=O)O)cc3)c2)ccc(C(C)=O)c1O` yielded a melting point of 144 to 146 °C. As for `CCCCCCOc1ccc(C=[N+]([O-])CCCCCC[N+]([O-])=Cc2ccc(OCCCCCC)cc2)cc1`, the melting point came out at 80 °C. The same measure for `Cc1ccccc1C(=O)Nc1ccc(C(=O)N2CCCC(CO)c3ccccc32)cc1` (stereo unspecified): 202 to 206 °C; for `CCC12CCC3C4=C(CCC3C1C=CC2=O)CC(OC)=CC4` (stereo unspecified): 89 to 91 °C; for `CC(C)(C)OC(=O)Oc1nc2c(N)ncnc2n1Cc1ccccc1`: 287 to 289 °C. The same measure for `CC1=C(C)C(=O)N(CC(=O)N2c3ccccc3N(Cc3ccccc3)C(=O)[C@H]3CCC[C@H]32)C1=O` (relative stereo): 196 to 200 °C. As for `Cc1ccc(S(=O)(=O)OCCN2Cc3ccccc3C2=O)cc1`, the melting point is 75 °C. To `CCN(CC)C(=O)c1ccc2ccccc2c1-c1cccc(OC)c1` belongs 91 to 93 °C. `COc1ccc(-c2nnn(-c3ccc(C(F)(F)F)cc3Cl)c2N)cc1` yielded a melting point of 130 to 131 °C.

As for `CCOc1cc(-c2cc(C(F)F)n3ncc(C(=O)Nc4cccc(S(=O)(=O)N5CCOCC5)c4)c3n2)ccc1C(F)(F)F`, the melting point amounted to 231 °C. Take `CCCc1nc(C)c(C(=O)O)n1Cc1ccc2oc(-c3ccccc3NS(=O)(=O)C(F)(F)F)c(Br)c2c1`: the melting point was 168 to 170 °C. Compound `Cc1sc(C=O)c(C)c1Br` showed a melting point of 44 to 45 °C. To `Cc1oc(-c2ccc(F)cc2)cc1C(=O)O` belongs 217 to 218 °C; to `COc1ccc(CC(CS)C(=O)Nc2cccc(C(=O)O)c2)cc1` (stereo unspecified), 184 to 185 °C; to `CCCCCC(CCC(=O)c1ccc(OCC)cc1)C(=O)O` (stereo unspecified), 61 °C.

Compound `COc1cccc(CNC(=O)c2nc3scc(-c4cccc(-c5ccc(C(=O)O)cc5)c4)c3c(=O)[nH]2)c1` yielded a melting point of 259 to 260 °C.

Regarding `O=C1CCCCC1c1cncc(Br)c1` (stereo unspecified), the melting point lay in the range of 67 to 69 °C.

Take `C(=C\c1cn(-c2ccccc2)nc1OCc1ccccc1)/c1cscn1`: the melting point was 101 to 102 °C. As for `CCOCc1nc2c(N)nc3cc(-c4cccnc4)ccc3c2n1CC(O)CO` (stereo unspecified), the melting point was in the range of 202 to 204 °C. The same measure for `Cc1nc(C(C)(O)c2ccsc2)c(C)o1` (stereo unspecified): 83 to 84 °C; for `COCOC1=C(C(N)=O)CC(C#N)(c2cccc(OCC3CC3)c2)CC1` (stereo unspecified): 120 to 122 °C. The compound `N#Cc1ccc(Nc2nc(Cc3c(Cl)cccc3Cl)cc(NCCN3CCCC3)n2)cc1` yielded a melting point of 80 to 85 °C. The compound `CC(=NOCCOc1ccc(C(=O)O)c(O)c1)c1ccccc1` yielded a melting point of 149 to 150 °C. Take `COC1CCC2C3C(C)CC4=CC(=O)C(C)CC4(C)C3CCC12C` (stereo unspecified): the melting point fell in the range of 123 to 126 °C. Take `C=CC(=O)Oc1ccc(NS(=O)(=O)CC)cc1`: the melting point lay within 99 to 100 °C. To `CCc1nn(CC#N)c(CC)c1Oc1cc(Cl)cc(Cl)c1` belongs 70 to 72 °C; to `ClCCCc1nnnn1C1CCCCC1`, 82 to 85 °C; to `CSc1ccc(C(=O)O)c(C(F)(F)F)c1F`, 108 to 109 °C. The compound `CC(C)Cn1c(CO)nc2c(N)nc3cccnc3c21` had a melting point of 226 to 228 °C. In turn, `NC(=S)Nc1c(Cl)cccc1Cl` had a melting point of 158 to 160 °C. The same measure for `Cc1cc(-c2nc(COc3ccc(CCCCn4ccnc4)cc3)co2)sc1Br`: 85 to 86 °C. On to `Cc1cnc(SCc2cc3c(cc2O)CCCO3)n1C`, for which the melting point was in the range of 139 to 140 °C. The same measure for `CC(C)c1c(C=C(Cl)Cl)c(-c2ccc(F)cc2)n2c1CCCC2`: 97 to 98 °C; for `CC(C)(COC(=O)c1cc(Cl)c(O)c(Cl)c1)COC(=O)c1cc(Cl)c(O)c(Cl)c1`: 180 to 181 °C.

With `CN(C(=O)CBr)c1ccc(Cl)cc1C(=O)c1ccccc1Cl`, the melting point was determined as 86 °C. `CC(C)Oc1ccc(Oc2ccc3c(c2)c(C(=O)O)c(CC(=O)O)n3-c2cccc(Cl)c2)cc1` came in with a melting point of 188 to 190 °C. For the compound `COc1cc(C(=O)N2CCCC2CO)c([N+](=O)[O-])cc1OC` (stereo unspecified), the melting point is 124 to 128 °C. In the case of `CCOc1ccc(-c2nn(C(C)c3oc4ccccc4c(=O)c3-c3cccc(F)c3)c3ncnc(N)c23)cc1F` (stereo unspecified), the melting point was in the range of 216 to 218 °C.

`CCOCCSC(F)(F)C(O)(Cn1cncn1)c1ccc(F)cc1F` (stereo unspecified) showed a melting point of 61 to 63 °C.

Take `CCCCCCCCCCCCCCCCNC(=O)NCCCN(C)C`: the melting point lay within 78 to 79 °C. To `CCOC(=O)C(=CNc1ccc(Br)cc1)C(=O)OCC` belongs 100 to 102 °C; to `Fc1ccc(-c2cncc(CN3CCN(c4ncccn4)CC3)c2)cc1`, 97 to 98 °C; to `CNc1c([N+](=O)[O-])cc2c(=O)c(C(=O)O)cn(-c3cc(N)c(F)cc3F)c2c1C`, 275 to 281 °C. `CCn1c(COCc2ccccc2)nc(C(C)C)c1Sc1cccc(F)c1` displayed a melting point of 88 to 90 °C. The same measure for `Cc1nsc(-c2ccc(N3CCN(c4cccc(C(F)(F)F)c4)CC3)nn2)n1`: 173 °C. Compound `COc1c(CC(=O)O)cccc1CC(=O)O` gave a melting point of 184 to 186 °C.

Compound `O=c1cc(CN2CCOCC2)oc(-c2ccc(O)cc2)c1` returned a melting point of 162 to 164 °C. The same measure for `O=c1c2ccc(OCC3CO3)cc2oc2ccc3cccc(O)c3c12` (stereo unspecified): 191 to 193 °C; for `COc1cc([N+](=O)[O-])c(N)cc1Cl`: 128 to 129 °C.

`CCOc1ccc(C2=NN(C3CCN(C(=O)CCCC(=O)O)CC3)C(=O)[C@@H]3CC=CC[C@H]23)cc1OCC` registered a melting point of 133 to 135 °C.
